Measurements reported in publication PMC10590056, “Design and synthesis of cabotegravir derivatives bearing 1,2,3-triazole and evaluation of anti-liver cancer activity” (Frontiers in Pharmacology, 2023).
“And” between values parts separate entries of the source, which are not always exact repeats. Identical values can stand only once. Like-named read-outs stand apart in the source and are kept apart here.

Columns and labels:
Assay type in all cases: cell-based
HeLa cells = assay: MTT assay for cell proliferation, HeLa; design: key to Inhibitory rate: inhibition rate = 1 - mean A490 sample/mean A490 control (fraction)
Procedure, shortened: (§1)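 Proliferation read-out is MTT reduction (4 h) after 48 h treatment with KJ-5 or KJ-12 across 0, 1, 2, 4, 8, 16 and 32 μM. Cultures in 10% FBS DMEM, 37 °C, plated at 10^5 cells/mL; A490 of DMSO-dissolved formazan compared with untreated control.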

MCF-7 cells = assay: MTT assay for cell proliferation, MCF-7; design: key to Inhibitory rate / Inhibition rate: inhibition rate = 1 - mean A490 sample/mean A490 control (fraction)
Procedure, shortened: as §1

normal hepatic cells L02 = assay: MTT inhibition rate in normal hepatic cells L02; conditions: for Average OD / Inhibitory rate / ODtreated/ODcontrol: L02 cells, 3 repeat experiments; for Average OD: average of 5 wells; for Inhibitory rate / ODtreated/ODcontrol: fraction
HepG2 cells [1] = assay: DAPI staining for cell apoptosis (morphology); conditions: HepG2, 2, 4, 8 μM, 24 h
Procedure: Apoptotic morphological changes were determined by DAPI staining. HepG2 cells were seeded in a 48-well plate and treated with different concentrations of KJ-5 and KJ-12 (2, 4, and 8 μM) for 24 h. After 24 h, they were then washed with PBS and fixed with 4% paraformaldehyde for 20 min. Subsequently, they were then washed with PBS and treated with DAPI (10 μg/mL) at 37°C for 5 min. After washing with PBS, the cells were resuspended in PBS for the rest of the experiment. A fluorescence microscope was used to observe the apoptotic morphological changes.

HepG2 cells [2] = assay: Cell cycle analysis (PI, flow cytometry); conditions: 24 h
Procedure: HepG2 cells were seeded in a 6-well plate at a density of 5 × 10^6 cells/well and treated with either KJ-5 or KJ-12 at concentrations of 2, 4, or 8 μM for 24 h. Cells were then collected and responded in […] of cold PBS. Subsequently, 700 μL of cold 70% ethanol was added to the cells and gently mixed by inversion on ice for 1 h. Cells were then centrifuged at 2,000 rpm for 10 min, washed once with 2 mL of cold PBS, and the supernatant was discarded. The cell pellet was resuspended in 250 μL of cold PBS, followed by the addition of 10 μL of RNase at a final concentration of 0.4 mg/mL and incubated at 37°C for 30 min. An additional 250 μL of PBS was added, followed by the addition of 5 μL of PI solution at a final concentration of 10 μg/mL. The samples were incubated […] in the dark overnight at 4°C. Finally, the samples were analyzed by flow cytometry.

[3] = MCF-7, fraction, per experiment

COc1c2n(cc(C(=O)Nc3cccc(-c4cn(-c5cc(C(F)(F)F)cc(C(F)(F)F)c5)nn4)c3)c1=O)C[C@H]1OC[C@H](C)N1C2=O [KJ-5]
Inhibitory rate (HeLa cells; Hela, group 1 (concentration), fraction, single experiments): 0.2915 and 0.2462 and 0.2143 | ODtreated/ODcontrol (HeLa cells; Hela, group 1 (concentration), single experiments): 0.7085 and 0.7538 and 0.7857 | Inhibitory rate (HeLa cells; Hela, group 2 (concentration), fraction, single experiments): 0.3879 and 0.3569 and 0.2882 | ODtreated/ODcontrol (HeLa cells; Hela, group 2 (concentration), single experiments): 0.6121 and 0.6431 and 0.7118 | Inhibitory rate (HeLa cells; Hela, group 4 (concentration), fraction, single experiments): 0.418 and 0.3669 and 0.3302 | ODtreated/ODcontrol (HeLa cells; Hela, group 4 (concentration), single experiments): 0.582 and 0.6331 and 0.6698 | Inhibitory rate (HeLa cells; Hela, group 8 (concentration), fraction, single experiments): 0.5915 and 0.5007 and 0.5011 | ODtreated/ODcontrol (HeLa cells; Hela, group 8 (concentration), single experiments): 0.4085 and 0.4993 and 0.4989 | Inhibitory rate (HeLa cells; Hela, group 16 (concentration), fraction, single experiments): 0.834 and 0.8197 and 0.8242 | ODtreated/ODcontrol (HeLa cells; Hela, group 16 (concentration), single experiments): 0.166 and 0.1803 and 0.1758 | Inhibitory rate (HeLa cells; Hela, group 32 (concentration), fraction, single experiments): 0.8525 and 0.86 and 0.8737 | ODtreated/ODcontrol (HeLa cells; Hela, group 32 (concentration), single experiments): 0.1475 and 0.14 and 0.1263 | IC50 (HeLa cells; Hela, one of three experiments, unit inferred, read-out: IC50, single experiment, Hela): 5.87 µM | Inhibitory rate (HeLa cells; Hela, fraction, per experiment): 0.8059 and 0.7883 and 0.7664 | ODtreated/ODcontrol (HeLa cells; Hela, fraction, per experiment): 0.1941 and 0.2117 and 0.2336 | IC50 (HeLa cells; Homo sapiens, HeLa, 48 h, HeLa, 48 h, MTT, read-out: IC50 HeLa): 5.02 ± 0.94 µM | IC50 (HeLa cells; Homo sapiens, HeLa, one of three experiments, unit inferred, read-out: IC50, single experiment, Hela): 5.16 µM | inhibition at 16 µM (HeLa cells; Homo sapiens, preliminary screening, Hela, 16 μM, 48 h, mean±SD, unit inferred, read-out: Inhibition rate (16μM), 48 h, Hela): 79.4 ± 1.04% | IC50 (MCF-7 cells; Homo sapiens, MCF7, 48 h, MCF-7, 48 h, MTT, read-out: IC50 MCF-7): 8.41 ± 0.14 µM | IC50 (MCF-7 cells; Homo sapiens, MCF7, MCF-7, one of three experiments, unit inferred, read-out: IC50, single experiment, MCF-7): 8.56 µM | inhibition at 16 µM (MCF-7 cells; Homo sapiens, MCF7, preliminary screening, MCF-7, 16 μM, 48 h, mean±SD, unit inferred, read-out: Inhibition rate (16μM), 48 h, MCF-7): 62.6 ± 1.76% | Inhibitory rate (MCF-7 cells; MCF-7, group 1 (concentration), fraction, single experiments): 0.147 and 0.1313 and 0.1401 | ODtreated/ODcontrol (MCF-7 cells; MCF-7, group 1 (concentration), single experiments): 0.853 and 0.8687 and 0.8599 | Inhibitory rate (MCF-7 cells; MCF-7, group 2 (concentration), fraction, single experiments): 0.1769 and 0.1986 and 0.2186 | ODtreated/ODcontrol (MCF-7 cells; MCF-7, group 2 (concentration), single experiments): 0.8231 and 0.8014 and 0.7814 | Inhibitory rate (MCF-7 cells; MCF-7, group 4 (concentration), fraction, single experiments): 0.4303 and 0.4175 and 0.4002 | ODtreated/ODcontrol (MCF-7 cells; MCF-7, group 4 (concentration), single experiments): 0.5697 and 0.5825 and 0.5998 | Inhibitory rate (MCF-7 cells; MCF-7, group 8 (concentration), fraction, single experiments): 0.509 and 0.5265 and 0.5019 | ODtreated/ODcontrol (MCF-7 cells; MCF-7, group 8 (concentration), single experiments): 0.491 and 0.4735 and 0.4981 | Inhibitory rate (MCF-7 cells; MCF-7, group 16 (concentration), fraction, single experiments): 0.5958 and 0.5893 and 0.6098 | ODtreated/ODcontrol (MCF-7 cells; MCF-7, group 16 (concentration), single experiments): 0.4042 and 0.4107 and 0.3902 | Inhibitory rate (MCF-7 cells; MCF-7, group 32 (concentration), fraction, single experiments): 0.7196 and 0.7385 and 0.7334 | ODtreated/ODcontrol (MCF-7 cells; MCF-7, group 32 (concentration), single experiments): 0.2804 and 0.2615 and 0.2666 | IC50 (MCF-7 cells; MCF-7, one of three experiments, unit inferred, read-out: IC50, single experiment, MCF-7): 8.29 µM and 8.37 µM | Inhibitory rate (MCF-7 cells; [3]): 0.6368 | ODtreated/ODcontrol (MCF-7 cells; [3]): 0.3632 | Inhibitory rate (MCF-7 cells; given as fraction, second of three experiments): 0.6364 | Inhibition rate (MCF-7 cells; given as fraction, third of three experiments): 0.6061 | ODtreated/ODcontrol (MCF-7 cells; second of three experiments): 0.3635 | ODtreated/ODcontrol (MCF-7 cells; third of three experiments): 0.3939 | inhibition at 1 µM (normal hepatic cells L02; Homo sapiens, L02, 48 h, L02, 1 μM, 48 h): 9.85 ± 1.6% | inhibition at 2 µM (normal hepatic cells L02; Homo sapiens, L02, 48 h, L02, 2 μM, 48 h): 14.9 ± 1.97% | inhibition at 4 µM (normal hepatic cells L02; Homo sapiens, L02, 48 h, L02, 4 μM, 48 h): < 20% | inhibition at 8 µM (normal hepatic cells L02; Homo sapiens, L02, 48 h, L02, 8 μM, 48 h): 27.1 ± 1.03% | inhibition at 16 µM (normal hepatic cells L02; Homo sapiens, L02, 48 h, L02, 16 μM, 48 h): 34.9 ± 2.22% | Average OD (normal hepatic cells L02; Group 1): 1.014 and 1.1374 and 1.3158 | Inhibitory rate (normal hepatic cells L02; Group 1): 0.1149 and 0.09786 and 0.08274 | ODtreated/ODcontrol (normal hepatic cells L02; Group 1): 0.8851 and 0.9021 and 0.9173 | Average OD (normal hepatic cells L02; Group 2): 0.969 and 1.07 and 1.2316 | Inhibitory rate (normal hepatic cells L02; Group 2): 0.1715 and 0.1379 and 0.1371 | ODtreated/ODcontrol (normal hepatic cells L02; Group 2): 0.8285 and 0.8621 and 0.8629 | Average OD (normal hepatic cells L02; Group 4): 0.922 and 1.0172 and 1.2162 | Inhibitory rate (normal hepatic cells L02; Group 4): 0.1819 and 0.1797 (2×) | ODtreated/ODcontrol (normal hepatic cells L02; Group 4): 0.8181 and 0.8203 (2×) | Average OD (normal hepatic cells L02; Group 8): 0.8272 and 0.9114 and 1.0668 | Inhibitory rate (normal hepatic cells L02; Group 8): 0.2824 and 0.2641 and 0.265 | ODtreated/ODcontrol (normal hepatic cells L02; Group 8): 0.7176 and 0.7359 and 0.735 | Average OD (normal hepatic cells L02; Group 16): 0.7216 and 0.9442 | Inhibitory rate (normal hepatic cells L02; Group 16): 0.3649 and 0.358 and 0.3234 | ODtreated/ODcontrol (normal hepatic cells L02; Group 16): 0.6351 and 0.642 and 0.6766 | Average OD (normal hepatic cells L02; Group 32): 0.428 and 0.4844 and 0.436 | Inhibitory rate (normal hepatic cells L02; Group 32): 0.7067 and 0.6192 and 0.6094 | ODtreated/ODcontrol (normal hepatic cells L02; Group 32): 0.2933 and 0.3808 and 0.3906 | Apoptotic morphological changes, DAPI staining (HepG2 cells [1]): cell shrinkage, nuclear condensation, and chromatin fragmentation | Percentage of cells in the G1 phase (HepG2 cells [2]; HepG2, 2 μM): 21.2% | Percentage of cells in the G2/M phase (HepG2 cells [2]; HepG2, 2 μM): 50.4% | Percentage of cells in the G1 phase (HepG2 cells [2]; HepG2, 4 μM): 15% | Percentage of cells in the G2/M phase (HepG2 cells [2]; HepG2, 4 μM): 58.3% | Percentage of cells in the G1 phase (HepG2 cells [2]; HepG2, 8 μM): 13.5% | Percentage of cells in the G2/M phase (HepG2 cells [2]; HepG2, 8 μM): 62.6% | Percentage of cells in the S phase (change vs control) (HepG2 cells [2]; HepG2, 2-8 μM): did not change significantly
